# Laboratory results from patent US7108863B2, “Liposome composition for improved intracellular delivery of a therapeutic agent” (Alza Corporation, priority 2001, dated 2006).
# Assays:
# [1] = system: CD19^+ Namalwa cells; assay: In vitro cytotoxicity, MTT proliferation assay on Namalwa cells; type: cell-based; conditions: Homo sapiens, 48 hours, mean ± SD, read-out: IC50 (μM DXR)
# Method: In vitro cytotoxicity of free DXR and various liposomal formulations was evaluated using Namalwa cells with an in vitro proliferation assay as described in Example 6. In addition to the targeted, pH-sensitive liposomes, conventional, non-pH sensitive sterically stabilized liposome (DXR-SL) and doxorubicin in free form were also tested. Each of the test formulations was incubated with the Namalwa cells under controlled conditions for 48 hours. At the end of the incubation time, cytotoxicity was expressed as the inhibitory concentration, that is the concentration required for a 50% inhibition of cell growth (IC50).
# A comparison of the in vitro cytotoxicity of free doxorubicin and various liposomal formulations (Table 1) was performed on Namalwa cells with an in vitro proliferation assay using a tetrazolium dye (MTT -3-(4,5-dimethylthiazol-2-yl)-2,5 diphenyltetrazolim bromide; Mosmann, J. J. Immunol Methods, 65:55 (1983)), as described in Lopes de Menezes et al, Cancer Res., 58:3320 (1998).
# Briefly, 5×10^5 Namalwa cells were plated in 96-well plates and incubated with either free DXR or various formulations of liposome-encapsulated doxorubicin with or without anti-CD19 mAb. […] At the end of the incubation period, tetrazolium dye was added, and the plates were read on a Titertek Multiskan Plus (Flow Laboratories, Inc. Mississauga, Ontario, Canada) at dual wavelengths of 570 and 650 nm. […]
# [2] = system: CD 19± human B-lymphoma (Namalwa) cells; assay: Survival of SCID mice implanted i.v. with Namalwa cells; type: in vivo
# Method: In another study performed in support of the invention, mice were treated with targeted, pH-sensitive liposomes having releasable PEG chains. Entrapped in the liposomes was the therapeutic agent doxorubicin (DXR). As described in Example 9, the mice were treated with a single dose of 3 mg DXR/kg in free form or entrapped in liposomes. The liposome formulations are summarized in Table 2 and detailed in Example 8.
# Namalwa cells were passaged i.p. in CB-17/ICR Tac SCID mice (Charles River Laboratories, Quebec, Canada) to develop a more virulent strain with reproducible tumor take (Lopes de Menezes et al., Cancer Res., 58:3320 (1998)). Namalwa cells were harvested in sterile PBS and implanted into SCID mice. Cell viability was assessed by dye exclusion using Trypan Blue dye before and after the implantation process.
# SCID mice (5 mice/group) (Charles River Laboratories), 6–8 weeks of age, were implanted with Namalwa cells i.v. (5×10^6) and treated i.v. at 24 h after implantation with a single dose of 3 mg doxorubicin/kg as either free doxorubicin, doxorubicin-SIL[anti-CD19] or targeted DXR-loaded DOPE/CHEMS formulations stabilized with either mPEG-DSPE or mPEG-S-S-DSPE. The treatment regimens were as follows:
# All treatment groups received 3 mg doxorubicin/kg. Mice were monitored routinely for weight loss, and euthanized as they became moribund; survival times were recorded. […]
# [3] = system: Namalwa cells; assay: Nuclear accumulation of doxorubicin in Namalwa cells; type: cell-based, human; conditions: 8 μM DXR, 0-12 hours
# Method: Nuclear accumulation of doxorubicin was determined as described in Example 7. Briefly, Namalwa cells, maintained under logarithmic growth conditions were treated with doxorubicin-entrapped liposome formulations at a doxorubicin concentration of 8 μM. At various time points (0, 2, 4, 8, 12 hours), an aliquot of the treated cells was ruptured to recover the nuclei. The DNA in the nuclei were enzymatically digested and doxorubicin fluorescence was measured.
# Nuclear accumulation of doxorubicin was determined according to the method of Kirchmeier et al. (J. Liposome Res., 11:15 (2001)). Briefly, 4.5×10^8/500 ml Namalwa cells, maintained under logarithmic growth conditions in RPMI 1640 supplemented with 10% FBS, were treated with either free DXR or various liposomal DXR formulations at a DXR concentration of 8 μM.
# At various time points (0, 2, 4, 8, 12 hours), 100 ml of cells was pelleted by centrifugation at 1000 rpm for 10 min and washed with 20 ml of TEA buffer. […] After removal of the supernatant, the pellet was diluted to 1 ml with TEA buffer, then vortexed and sonicated until the nuclei were evenly dispersed, as determined by visual inspection.
# For each time point, three aliquots of the nuclear fractions (0.2 ml each) were placed in 1.3 ml TEA. […] Following digestion at 22° C. for 2 hours, the doxorubicin fluorescence was recorded (excitation at 480 nm and emission at 595 nm). […]
smiles,measurement,setting,value
"COc1cccc2c1C(=O)c1c(O)c3c(c(O)c1C2=O)C[C@@](O)(C(=O)CO)C[C@@H]3O[C@H]1C[C@H](N)[C@H](O)[C@H](C)O1 [Free DXR, doxorubicin]",IC50,[1],0.8 ± 0.7 µM
same,Increased Life Span (% ILS),"[2]; relative to mean survival time of control mice, 3 mg DXR/kg i.v.",9.5%
same,Mean Survival Time (MST ± S.D. (days)),"[2]; single i.v. dose 3 mg DXR/kg 24 h after i.v. implantation, 5 mice/group",23.0 ± 1.4 days
same,nuclear accumulation of doxorubicin (in words),[3],fastest rate
